Measurements reported in ChEMBL document CHEMBL1121390, “Rm values and structure-activity relationship of benzodiazepines” (J Med Chem, 1980).

Assays:
[1] = Partition coefficient (logP); assay type: physicochemical; details: octanol/water
Rattus norvegicus [2] = species: Rattus norvegicus; assay: ED50 value was reported as log1/C, which is the concentration required to reduce locomotor activity by 50% in rats; assay type: functional
Rattus norvegicus [3] = species: Rattus norvegicus; assay: Fourfod increase in lever pressing in punished rats, ED50 value reported as log1/C; assay type: functional
Rattus norvegicus [4] = species: Rattus norvegicus; assay: Halving of lever pressing in non punished rats, ED50 value reported as log 1/C; assay type: functional

SMILES	logP [1]	Log 1/C (Rattus norvegicus [2])	Log 1/C (Rattus norvegicus [3])	Log 1/C (Rattus norvegicus [4])
CN1C(=O)CN=C(c2ccccc2Cl)c2cc(Cl)ccc21	3.25	2.409	2.824	2.409
CCCC(CCC)C(=O)OC1N=C(c2ccccc2)c2cc(Cl)ccc2NC1=O (stereo not drawn)	5.25	0.503		
CN1C(=O)CN=C(C2C=CCCC2)c2cc(Cl)ccc21 (stereo not drawn)	2.76			
O=C1C(O)N=C(c2ccccc2Cl)c2cc(Cl)ccc2N1CCO (stereo not drawn)	1.94	2.005	1.959	1.711
O=C1C(O)N=C(c2ccccc2)c2cc([N+](=O)[O-])ccc2N1CCO (stereo not drawn)	0.72	0.34		
CC(=O)OC1N=C(c2ccccc2)c2cc(Cl)ccc2N(CCO)C1=O (stereo not drawn)	2.01			
CNC1C[N+]([O-])=C(c2ccccc2)c2cc(Cl)ccc2N1 (stereo not drawn)	2.5	1.628	1.578	1.277
CCOC1N=C(c2ccccc2)c2cc(Cl)ccc2N(CCOC(C)=O)C1=O (stereo not drawn)	2.87			
CCN(CC)CCN1C(=O)C(O)N=C(c2ccccc2)c2cc(Cl)ccc21 (stereo not drawn)	1.67			
O=C(O)CCC(=O)OCCN1C(=O)C[N+]([O-])=C(c2ccccc2)c2cc(Cl)ccc21	0.19	0.762		
O=C1C(O)N=C(c2ccccc2)c2cc(Cl)ccc2N1CCCO (stereo not drawn)	1.87			
CC(=O)OCCCN1C(=O)C(OC(C)=O)N=C(c2ccccc2)c2cc(Cl)ccc21 (stereo not drawn)	3			
O=C1C[N+]([O-])=C(c2ccccc2)c2cc(Cl)ccc2N1CCO	0.44	0.346		
CNC(=O)N1C(=O)CN=C(c2ccccc2)c2cc([N+](=O)[O-])ccc21	1.95			
O=C1C(O)N=C(c2ccccc2)c2cc(Cl)ccc2N1CCO (stereo not drawn)	1.35	0.797	0.361	0.42
CCOC1N=C(c2ccccc2)c2cc(Cl)ccc2N(CCCl)C1=O (stereo not drawn)	3.95	0.193		
CCN(CC)CCN1C(=O)C(O)N=C(c2ccccc2F)c2cc(Cl)ccc21 (stereo not drawn)	1.68			
COc1cc(C(=O)OC2N=C(c3ccccc3)c3cc(Cl)ccc3NC2=O)cc(OC)c1OC (stereo not drawn)	3.54	0.358		
CC(=O)OCCN1C(=O)C(OC(C)=O)N=C(c2ccccc2)c2cc(Cl)ccc21 (stereo not drawn)	2.48			
O=C1C[N+]([O-])=C(c2ccccc2)c2ccccc2N1	1.46			
O=C(O)CCC(=O)OC1N=C(c2ccccc2)c2cc(Cl)ccc2NC1=O (stereo not drawn)	1.41	1.381		

SMILES	logP [1]	Log 1/C (Rattus norvegicus [2])	Log 1/C (Rattus norvegicus [3])	Log 1/C (Rattus norvegicus [4])
CCN(CC)CCN1C(=O)C(O)N=C(c2ccccc2Cl)c2cc(Cl)ccc21 (stereo not drawn)	2.26			
O=C1Nc2ccc(Cl)cc2C(c2ccccc2F)=NC1O (stereo not drawn)	1.48	2.501	2.36	2.045
CCOC1N=C(c2ccccc2)c2cc(Cl)ccc2N(CCO)C1=O (stereo not drawn)	2.4			
O=C1CN=C(c2ccccc2F)c2cc(Cl)ccc2N1	2.15	2.046	2.284	1.825
O=C1CN=C(c2ccccc2Cl)c2cc([N+](=O)[O-])ccc2N1 [CLONAZEPAM]	2.41			
O=C1CN=C(c2ccccc2Cl)c2cc(Cl)ccc2N1 [DELORAZEPAM]	2.73	2.79	2.678	2.509
CN1C(=O)CN=C(c2ccccc2)c2cc(Cl)ccc21 [DIAZEPAM]		1.793	1.876	1.659
O=C1C(O)N=C(c2ccccc2F)c2cc(Cl)ccc2N1CCO (stereo not drawn) [DOXEFAZEPAM]	1.36	2.239	1.648	1.697
CN1C(=O)CN=C(c2ccccc2F)c2cc(Cl)ccc21 [FLUDIAZEPAM]	2.67	2.598	2.721	2.417
CCN(CC)CCN1C(=O)CN=C(c2ccccc2F)c2cc(Cl)ccc21 [FLURAZEPAM]	2.35	1.943	1.745	1.291
CN1C(=O)C(O)N=C(c2ccccc2F)c2cc(Cl)ccc21 (stereo not drawn) [FLUTEMAZEPAM]	2	2.81	2.585	2.371
O=C1CN=C(c2ccccc2)c2cc(Cl)ccc2N1CC(F)(F)F [HALAZEPAM]	3.73	1.097		
O=C1Nc2ccc(Cl)cc2C(c2ccccc2Cl)=NC1O (stereo not drawn) [LORAZEPAM]		3.145	2.444	2.897
CN1C(=O)C(O)N=C(c2ccccc2Cl)c2cc(Cl)ccc21 (stereo not drawn) [LORMETAZEPAM]	2.58	2.594	2.658	2.394
CN1CCN=C(c2ccccc2)c2cc(Cl)ccc21 [MEDAZEPAM]	4.05	1.443		
O=C1CN=C(c2ccccc2)c2cc([N+](=O)[O-])ccc2N1 [NITRAZEPAM]	2.12	2.326		
O=C1CN=C(c2ccccc2)c2cc(Cl)ccc2N1 [NORDAZEPAM]		1.247	1.83	0.832
O=C1Nc2ccc(Cl)cc2C(c2ccccc2)=NC1O (stereo not drawn) [OXAZEPAM]		1.191	1.192	0.961
O=C1CN=C(c2ccccc2)c2cc(Cl)ccc2N1CC1CC1 [PRAZEPAM]	3.72	0.709		
CN1C(=O)C(O)N=C(c2ccccc2)c2cc(Cl)ccc21 (stereo not drawn) [TEMAZEPAM]		1.629	1.883	1.228
